# Reference: patent US7202239B2, “Cyclohexylphenyl carboxamides tocolytic oxytocin receptor antagonists” (Wyeth, priority 2001, dated 2007)
# pIC50: −log10 of the molar value.
# Target: human V2 vasopressin receptor subtype (Homo sapiens, UniProt P30518)
# Assay: Vasopressin binding in CHO cell membranes expressing human vasopressin V2 subtype receptors
# Settings: 100 nM, [3H]arginine vasopressin
# Description: Vasopressin Binding in Chinese Hamster Ovary Cell Membranes Expressing Human Vasopressin V2 Subtype Receptors
# Chinese Hamster Ovary (CHO) cells stably transfected with the human V2 subtype receptors were obtained from M. Thibonnier, Case Western Reserve University School of Medicine, Cleveland, Ohio.
# A. Passaging and Amplification of Cells:
# CHO cells transfected with the human vasopressin V2 subtype receptors obtained from M. Thibonnier (pZeoSV vector) are allowed to grow to confluency (approx. >90%) in T-150 flasks under sterile conditions, in a cell culture medium of F-12 Nutrient Mixture (HAM) with L-glutamine (Gibco Cat. # 11765-054) containing 15 mM HEPES (Gibco Cat. # 15630-080), 1% antibiotic/antimycotic (add 5 mL 100×, Gibco Cat. # 15240-062 per 500 mL F-12), 250 μg/mL Zeocin (add 1.25 mL of 100 mg/mL Invitrogen R-250-01 per 500 mL F-12) and 10% Fetal Bovine Serum (Qualified, heat inactivated, Gibco Cat. # 16140-063). The medium is removed by aspiration and the cells washed with 10 mL of Hank's Balanced Salt solution (Gibco Cat. # 14175-095). The salt solution is removed by aspiration and the cells trypsinized with 5 mL of trypsin-EDTA (0.05% trypsin, 0.53 mM EDTA-4Na, Gibco Cat. # 25300-070) for 1 min. The trypsin is removed by aspiration and the cells dislodged by tapping. Cell Culture medium (e.g. 30 mL for 1:30 split) is immediately added and mixed well to inactivate trypsin. 1 mL of detached cells is added to new culture flasks containing fresh Cell Culture medium (e.g. into 25 mL per T-150 flask), and mixed gently. The cells are incubated at 37° C. in 5% CO2. The medium is changed at 3 to 4 day interval (or as appropriate). The cells grow to confluency (approx. >75%–95%) within 7–8 days. All steps are done under sterile conditions. B. Membrane Preparation: The cells are washed twice gently with Hank's Balanced Salt solution (e.g. use 10 mL per T-150 flask). The excess solution is removed and the cells bathed for 15–30 min. in an enzyme-free Cell Dissociation Buffer (e.g. use 8 mL Hank's Based, Gibco Cat. # 13150-016 per T-150 flask) until cells are loosened. The contents are transferred to centrifuge tubes (50 mL) kept in an ice bath. All subsequent steps are done at 4° C. The tubes are centrifuged at 300× g for 15 min (1380 rpm on SORVAL, Model RT6000D, using the rotor for 50 mL tubes). The supernatant is discarded and the cells suspended in homogeneizing buffer(10 mM Tris-HCl containing 0.25 M sucrose and 1 mM EDTA, pH 7.4) ensuring that the volume of the buffer is about ten times the volume of the cell pellet. The cells are pooled into a centrifuge tube (50 mL) and homogenized with a Polytron at setting 6 for 10 sec. The homogenate is transferred into a Potter-Elvjehm homogeneizer and homogenized with 3 strokes. The homogenate is centrifuged at 1500×g for 60 min at 4° C. (3100 rpm using SORVAL, model RT6000D, using the rotor for 50 mL tubes). The pellet is discarded. The supernatant is centrifuged at 100,000×g for 60 min. at 4° C. (Beckman L8-80M ultracentrifuge; spin at 37,500 rpm with rotor type 70 Ti for 50 mL tubes; 38,000 rpm with type 80Ti for 15 mL tubes; or 35,800 rpm with rotor type 45Ti). The supernantant is discarded and the pellet suspended in 3 to 4 mL of Tris buffer (50 mM TRIS-HCl, pH 7.4). The protein content is estimated by the Bradford or Lowry method. The volume of the membrane suspension is adjusted with the membrane buffer (50 mM Tris-HCl containing 0.1% BSA and 0.1 mM PMSF) to give 3.0 mg/mL (or as appropriate) of protein. The membranes are aliquoted and stored at −70° C. C. Radioligand Binding Assay: In wells of a 96-well format microtiter plate, is added 90, 110 or 130 μL (to make up a final volume of 200 μL) of assay buffer containing 50 mM of Tris-HCl (pH 7.4), […], 1 mg % aprotinin, 1 mg % leupeptin, 2 mg % 1,10-phenanthroline, 10 mg % trypsin inhibitor, and 0.1 mM PMSF. The inhibitors are added on the day of the experiment. […]
# human V2 vasopressin receptor subtype, sequence (P30518 whole entry): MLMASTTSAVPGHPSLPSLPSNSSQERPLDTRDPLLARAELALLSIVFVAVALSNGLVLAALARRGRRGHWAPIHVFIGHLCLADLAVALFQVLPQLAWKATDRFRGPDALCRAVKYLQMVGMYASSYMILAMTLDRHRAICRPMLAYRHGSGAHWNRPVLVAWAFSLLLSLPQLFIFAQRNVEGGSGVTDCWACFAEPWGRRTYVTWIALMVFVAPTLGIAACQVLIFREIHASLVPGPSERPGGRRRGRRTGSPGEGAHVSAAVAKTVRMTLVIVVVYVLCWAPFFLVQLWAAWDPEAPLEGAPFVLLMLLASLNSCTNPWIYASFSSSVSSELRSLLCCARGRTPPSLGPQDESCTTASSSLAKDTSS
inhibition at 0.1 µM,V2 % inhibition at 100 nM,SMILES
3%,,"COC(=O)c1ccc2c(c1)N(C(=O)c1ccc(C3CCCCC3)cc1)Cc1ccc(C(=O)N3CCN(C)CC3)n1C2.Cl [Example 1, Methyl 10-(4-cyclohexylbenzoyl)-3-[(4-methyl-1-piperazinyl)carbonyl]-10,11-dihydro-5H-pyrrolo[2,1-c][1,4]benzodiazepine-8-carboxylate hydrochloride salt]"
-4%,,"CN1CCN(C(=O)c2ccc3n2Cc2ccc(C(=O)O)cc2N(C(=O)c2ccc(C4CCCCC4)cc2)C3)CC1 [Example 3, 10-(4-Cyclohexyl-benzoyl)-3-[(4-methyl-1-piperazinyl)carbonyl]-10,11-dihydro-5H-pyrrolo[2,1-c][1,4]benzodiazepine-8-carboxylic acid]"
2%,,"CC(C)(C)c1ccc(C(=O)c2ccc3n2Cc2ccccc2N(C(=O)c2ccc(C4CCCCC4)cc2)C3)cc1 [Example 5, [4-(tert-Butyl)phenyl][10-(4-cyclohexyl-benzoyl)-10,11-dihydro-5H-pyrrolo[2,1-c][1,4]benzodiazepin-3-yl]methanone]"
10%,,"O=C(c1ccc(C2CCCCC2)cc1)N1Cc2ccc(C(=O)C(Cl)(Cl)Cl)n2Cc2ccccc21 [Example 7, 2,2,2-Trichloro-1-[10-(4-cyclohexyl-benzoyl)-10,11-dihydro-5H-pyrrolo[2,1-c][1,4]benzodiazepin-3-yl]-1-ethanone]"
,7%,"Cc1ccccc1C(=O)NNC(=O)c1ccc2n1Cc1ccccc1N(C(=O)c1ccc(C3CCCCC3)cc1)C2 [Example 12, 10-(4-Cyclohexyl-benzoyl)-N′-(2-methylbenzoyl)-10,11-dihydro-5H-pyrrolo[2,1-c][1,4]benzodiazepine-3-carbonyl-hydrazide]"
,18%,"O=C(NNC(=O)C1CC1)c1ccc2n1Cc1ccccc1N(C(=O)c1ccc(C3CCCCC3)cc1)C2 [Example 13, 10-(4-Cyclohexyl-benzoyl)-N′-(cyclopropylcarbonyl)-10,11-dihydro-5H-pyrrolo[2,1-c][1,4]benzodiazepine-3-carbonyl-hydrazide]"
,4%,"Cc1cccc(C(=O)NNC(=O)c2ccc3n2Cc2ccccc2N(C(=O)c2ccc(C4CCCCC4)cc2)C3)c1 [Example 14, 10-(4-Cyclohexyl-benzoyl)-N′-(3-methyl-benzoyl)-10,11-dihydro-5H-pyrrolo[2,1-c][1,4]benzodiazepine-3-carbonyl-hydrazide]"
11%,,"O=C(NNC(=O)c1ccc2n1Cc1ccccc1N(C(=O)c1ccc(C3CCCCC3)cc1)C2)Nc1ccccc1 [Example 15, 2-{[10-(4-Cyclohexyl-benzoyl)-10,11-dihydro-5H-pyrrolo[2,1-c][1,4]benzodiazepin-3-yl]carbonyl}-N-phenyl-1-hydrazinecarboxamide]"
11%,,"CN(C)/C=C/C(=O)c1ccc2n1Cc1ccccc1N(C(=O)c1ccc(C3CCCCC3)cc1)C2 [Example 20, (E)-1-[10-(4-Cyclohexyl-benzoyl)-10,11-dihydro-5H-pyrrolo[2,1-c][1,4]benzodiazepin-3-yl]-3-(dimethylamino)-2-propen-1-one]"
13%,,"CN(N)C(=O)c1ccc2n1Cc1ccccc1N(C(=O)c1ccc(C3CCCCC3)cc1)C2 [Example 21, 10-(4-Cyclohexyl-benzoyl)-N-methyl-10,11-dihydro-5H-pyrrolo[2,1-c][1,4]benzodiazepine-3-carboxylic acid hydrazide]"
,19%,"O=C(O)c1ccc2n1Cc1ccccc1N(C(=O)c1ccc(C3CCCCC3)cc1)C2 [Example 22, 10-(4-Cyclohexyl-benzoyl)-10,11-dihydro-5H-pyrrolo[2,1 c][1,4]benzodiazepine-3-carboxylic acid]"

# Same assay, conditions: [3H]arginine vasopressin, value in parentheses
row,pIC50,SMILES
1,< 6.00,"CC(=O)c1ccc2n1Cc1ccccc1N(C(=O)c1ccc(C3CCCCC3)cc1)C2 [Example 6, 1-[10-(4-Cyclohexyl-benzoyl)-10,11-dihydro-5H-pyrrolo[2,1-c][1,4]benzodiazepin-3-yl]-ethanone]"
2,< 6.00,"NNC(=O)c1ccc2n1Cc1ccccc1N(C(=O)c1ccc(C3CCCCC3)cc1)C2 [Example 8, 10-(4-Cyclohexy-benzoyl)-10,11-dihydro-5H-pyrrolo[2,1-c][1,4]benzodiazepine-3-carboxylic acid hydrazide]"
3,< 6.00,"CC(=NNC(=O)c1ccc2n1Cc1ccccc1N(C(=O)c1ccc(C3CCCCC3)cc1)C2)N(C)C [Example 9, N′-{[10-(4-Cyclohexyl-benzoyl)-10,11-dihydro-5H-pyrrolo[2,1-c][1,4]benzodiazepin-3-yl]carbonyl}-N,N-dimethylethanehydrazonamide]"
4,5.93,"CN(C)C=NNC(=O)c1ccc2n1Cc1ccccc1N(C(=O)c1ccc(C3CCCCC3)cc1)C2 [Example 10, N′-{[10-(4-Cyclohexyl-benzoyl)-10,11-dihydro-5H-pyrrolo[2,1-c][1.4]benzodiazepin-3-yl]carbonyl}-N,N-dimethylhydrazonoformamide]"
5,< 6.00,"CC(=O)NNC(=O)c1ccc2n1Cc1ccccc1N(C(=O)c1ccc(C3CCCCC3)cc1)C2 [Example 11, N′-Acetyl-10-(4-cyclohexyl-benzoyl)-10,11-dihydro-5H-pyrrolo[2,1-c][1,4]benzodiazepine-3-carbonyl-hydrazide]"
6,< 6.00,"NC(=O)c1ccc2n1Cc1ccccc1N(C(=O)c1ccc(C3CCCCC3)cc1)C2 [Example 16, 10-(4-Cyclohexyl-benzoyl)-10,11-dihydro-5H-pyrrolo[2,1-c][1,4]benzodiazepin-3-carboxamide]"
7,6.32,CN(C)/C=N/C(=O)c1ccc2n1Cc1ccccc1N(C(=O)c1ccc(C3CCCCC3)cc1)C2 [Example 17]
8,6.53,C/C(=N\C(=O)c1ccc2n1Cc1ccccc1N(C(=O)c1ccc(C3CCCCC3)cc1)C2)N(C)C [Example 18]
9,< 6.00,"CN(C)NC(=O)c1ccc2n1Cc1ccccc1N(C(=O)c1ccc(C3CCCCC3)cc1)C2 [Example 19, 10-(4-Cyclohexyl-benzoyl)-N′-N′-dimethyl-10,11-dihydro-5H-pyrrolo[2,1-c][1,4]benzodiazepine-3-carbohydrazide]"
10,< 6.00,O=C(c1ccc2n1Cc1ccccc1N(C(=O)c1ccc(C3CCCCC3)cc1)C2)N1CCN(c2ncccn2)CC1 [Example 23]
11,< 6.00,"CN1CCN(C(=O)c2ccc3n2Cc2ccccc2N(C(=O)c2ccc(C4CCCCC4)cc2)C3)CC1 [Example 24, [10-(4-Cyclohexyl-benzoyl)-10,11-dihydro-5H-pyrrolo[2,1-c][1,4]benzodiazepin-3-yl](4-methyl-1-piperazinyl)-methanone]"
12,< 6.00,"O=C(c1ccc2n1Cc1ccccc1N(C(=O)c1ccc(C3CCCCC3)cc1)C2)N1CCC(N2CCCC2)CC1 [Example 25, [10-(4-Cyclohexyl-benzoyl)-10,11-dihydro-5H-pyrrolo[2,1-c][1,4]benzodiazepin-3-yl][4-(1-pyrrolidinyl)-1-piperidinyl]methanone]"
13,< 6.00,"O=C(c1ccc2n1Cc1ccccc1N(C(=O)c1ccc(C3CCCCC3)cc1)C2)N1CCC(N2CCCCC2)CC1 [Example 26, [1,4′]Bipiperidinyl-1′-yl-[10-(4-cyclohexyl-benzoyl)-10,11-dihydro-5H-pyrrolo[2,1-c][1,4]benzodiazepin-3-yl]-methanone]"
